Laboratory results: ChEMBL document CHEMBL1649383, “Mode of action of epoxyphomalins A and B and characterization of related metabolites from the marine-derived fungus Paraconiothyrium sp” (J Nat Prod, 2010)

How the values were obtained:
[1] = species: Homo sapiens; experiment: Inhibition of chymotrypsin like activity of human erythrocyte-derived 20S proteasome after 60 mins by fluorescence assay
[2] = species: Homo sapiens; experiment: Inhibition of caspase like activity of human erythrocyte-derived 20S proteasome after 60 mins by fluorescence assay
[3] = species: Homo sapiens; experiment: Inhibition of trypsin like activity of human erythrocyte-derived 20S proteasome after 60 mins by fluorescence assay

Measured: Activity

CC1=CC[C@H]2[C@](C)(CO)CCC[C@]2(C)[C@H]1C[C@@]12O[C@@H]1C(=O)C(CO)=C[C@H]2O
active: [1] Dose-dependent effect | [2] Dose-dependent effect | [3] Dose-dependent effect

CC1=C[C@@H](O)[C@]2(C[C@H]3C(C)=CC[C@H]4[C@](C)(CO)CCC[C@]34C)O[C@@H]2C1=O
active: [1] Dose-dependent effect | [2] Dose-dependent effect | [3] Dose-dependent effect
